Experimental findings from publication PMC8743659, “C1632 suppresses the migration and proliferation of non‐small‐cell lung cancer cells involving LIN28 and FGFR1 pathway” (Journal of Cellular and Molecular Medicine, 2021) are described below.

Data set [1] deals with A549 cells. The data set is described as follows: Scratch-wound healing assay. In kind it is cell-based, human. To be noted: A549, 60 mg/L. The protocol:
(§1) The cells scratch‐wound assay was performed as previous reported.[38] The cells were seeded in a 6‐well plate and then cultured in DMEM medium containing indicated concentration of C1632 or 0.01% DMSO for 5 days. A denuded area was created across the diameter of dish by a yellow tip as the cell density up to 95%. Then cells were maintained in a serum‐free medium throughout the test. Phase‐contrast images were taken at the indicate time by Nikon Ti microscope and analysed with Axiovision Rel.4.8 software.

Data set [2] deals with A549R cells. The data set is described as follows: Scratch-wound healing assay. The format is cell-based, human. To be noted: 60 mg/L, after 72 h, control 97%. The protocol: as §1
The nature of data set [3]: Pharmacokinetic study, plasma by UHPLC-MS/MS. Particulars: for MRT last: read-out: MRT(0-t); for half-life: read-out: t1/2z (converted). The format is in vivo, Sprague-Dawley (SD) rats. The procedure:
Agilent 1290 UHPLC system and 6420 series Triple‐Quadrupole Tandem Mass Spectrometer (Agilent Corporation) maintained at 35°C with a ZORBAX Eclipse Plus C18 column (1.8 μm, 2.1 × 50 mm). The mobile phase was a gradient elution program consisting of solvent A with solvent B at a flow rate of 0.4 ml/min. Mobile phase A was 0.1% formic acid in water (v/v), and mobile phase B was acetonitrile. The optimal gradient elution program was as follows: 0–0.5 min, linear from 80% to 5% A; 0.5–1.5 min, 5% A; 1.5–1.6 min, linear from 5% to 80% A. The post‐time was 1.3 min for equilibration of the column and the total runtime was 1.8 min. The mass spectrometer was acquired in an ESI‐positive mode with multiple reaction monitoring (MRM). Instrument control and data acquisition were performed on the MassHunter Agilent Software (version B.07.00).
The desolation gas (nitrogen) flow was set to 10 L/h: the capillary voltage: 4000 V; nebulizing gas and drying gas (both nitrogen): 45 psi and 350°C, respectively. The MRM mode with m/z 282.2→76.9 for C1632 and m/z 282.1→194.0 for IS was used for quantitative analysis.
Male SD rats were starved for 12 h before the experiment. But, tap water was available ad libitum. C1632 was administered orally or intravenously at the dose of 20 mg/kg (p.o.), 4 mg/kg (i.v.), respectively (n = 6). Blood samples were collected into heparinized polythene tubes 0.083, 0.25, 0.5, 1, 2, 4, 6, 9, 12, 24 h after dosing. As followed, the samples were centrifuged at 14,954 g for 10 min. Add acetonitrile (400 µl) and IS (20 µl) into collected plasma samples (100 µl). Thereafter, the samples were vortexed for 2 min, followed by centrifugation at 14,954 g for 10 min. Remove the supernatants to 1.5 ml tube and the sample is ready for detection by established UHPLC‐MS/MS assay. The injection volume is 6 µl. The pharmacokinetic parameters were determined using DAS software (Version 3.0).

The next data set concerns LIN28. The data set is described as follows: qPCR of LIN28 mRNA in NSCLC cells. In kind it is cell-based, human. To be noted: A549 and A549R cells, 15, 30 and 60 mg/L, 5 days; especially in A549R. The procedure:
Total RNA was extracted using RNAiso Plus (Takara) according to the manufacturer's instructions. cDNA was synthesized using PrimeScript II first‐strand cDNA Synthesis Kit (Takara), followed by amplification with RealStar Power SYBR Mixture (GenStar). miRNAs were quantified using the stem‐loop method, and U6 snRNA was adopted as internal control. Specific primer sequences were designed as previously reported.[40] qPCR was carried out with a LightCycler 480 Real‐Time PCR system (Roche). Data were analysed using the comparative Ct (2−ΔΔCt) method.[41] All experiments were performed in three independent experiments. qPCR primers for mRNA detection were as follows: GAPDH‐forward 5′‐[…]‐3′; GAPDH‐reverse 5′‐[…]‐3′; LIN28A‐forward 5′‐[…]‐3′; LIN28A‐reverse 5′‐GCGGTCATGGACA GGAAGCC‐3′; LIN28B‐forward 5′‐[…]‐3′; LIN28B‐reverse 5′‐[…]‐3′.

In data set [4] the test system is A549 cells. The data set is described as follows: MTT cell viability assay. The format is cell-based, human. Particulars: A549, high dose 60 mg/L. The protocol: (§2) The cell viability of MRC5, A549, and A549R were assessed by the 3‐(4,5‐dimethylthiazol‐2‐yl)‐2,5‐diphenyltetrazolium bromide (MTT) assay.[39] Cells were treated with indicated concentration of C1632 or 0.01% DMSO (Control) for 48 h before 20 μl/well MTT (0.5 mg/ml) was added for another 4 h. The reaction product formazan was dissolved in 100 μl DMSO and the absorbance at 560 nm was determined by the spectrophotometer (DTX880, Beckman Coulter).

For another data set, the system named is MRC5 cells. The data set is described as follows: MTT cell viability assay. To be noted: MRC5, high dose 60 mg/L. The format is cell-based, human. The protocol: as §2
A general note: Tetrazolium assays rely on reduction of a dye to a coloured formazan, in cell work by metabolically active cells.

Data set [5] deals with A549R cells. The data set is described as follows: MTT cell viability assay. In kind it is cell-based, human. Particulars: high dose 60 mg/L. The procedure:
as §2

For data set [6], the system named is focal adhesion kinase (FAK). The data set is described as follows: Immunofluorescence assay of FAK. The format is cell-based, human. To be noted: A549R cells, 5 days, concentration-dependent. The procedure: Performing the immunofluorescence (IF) assay as previously described.[39] Briefly, cells were seeded to slide, fixed with 4% paraformaldehyde, and permeabilized using 0.5% Triton X‐100. Next, cells were incubated with primary antibodies against FAK (CST), followed by incubating with secondary antibodies (DyLight 488‐conjugated anti‐mouse). DAPI was used to stain the nuclear. The fluorescence image was captured by using Nikon Ti microscope and the quantitative analysis was carried out by ImageJ.

For data set [7], the system named is focal adhesion kinase (FAK). The data set is described as follows: Western blot of p-FAK. In kind it is cell-based, human. To be noted: A549 and A549R cells, 5 days. The procedure:
The total cell protein was extracted and denaturized at 95°C for 10 min. Samples were separated in SDS‐PAGE gel, then transferred to a PVDF membrane. Then this membrane was blocked with 5% non‐fat milk (solved in TBST) for 2.5 h at room temperature. Blots were probed with relevant primary antibodies against FGFR1 (CST), p‐FGFR1 (CST), MAPK (CST), p‐MAPK (CST), FAK (CST), p‐FAK (CST), MMP‐9 (CST), LIN28B (CST), GAPDH (CST), and β‐actin (proteintech) overnight at 4°C, respectively. Then the lanes were detected with HRP‐conjugated secondary antibodies and visualized using WESTAR SUPERNOVA kit (CYANAGEN).

[8] abbreviates: male, Sprague-Dawley, iv, rat plasma, i.v. 4 mg/kg.
Where [9] appears, read: male, Sprague-Dawley, po, rat plasma, p.o. 20 mg/kg.

Like-named read-outs stand apart in the source and are kept apart here.

The term AUC(0-t) denotes the area under the concentration-time curve up to a stated or last time point. A higher AUC(0-t) goes with more exposure. By Cmax is commonly meant the maximum level reached in the sampled fluid or tissue. A word on the Tmax: it is the time from dosing to the highest level. For orientation: bioavailability means the share of a dose that reaches the circulation, judged against a reference dose that is usually intravenous.

In the case of `CC(=O)N(C)c1cccc(-c2ccc3nnc(C)n3n2)c1` [C1632], the migration rate entry in the data set with A549 cells [1] was “significant decrease”. Also, in the data set with A549R cells [2], the “scratch covered by migrated cells” value came to 60%. In addition, in data set [3] (setting [8]), the AUC(0-t) was 4090 ± 1630 ng·h/mL, the Cmax stood at 2070 ± 338 ng/mL, the Tmax was determined as 0.53 ± 0.74 h and the MRT last amounted to 1.57 ± 0.74 h. In addition, in [3] (setting [8]), the half-life was 1.14 ± 0.52 h. In data set [3] (setting [9]), the AUC(0-t) turned out to be 9100 ± 3830 ng·h/mL, the peak level (Cmax) was 4240 ± 2680 ng/mL, the Tmax amounted to 1.04 ± 0.78 h and the MRT last worked out at 1.88 ± 0.42 h. Also, in data set [3] (setting [9]), the half-life is 1.05 ± 0.6 h. The CL/F in data set [3] (male, Sprague-Dawley, po, rat plasma, p.o. 20 mg/kg, read-out: CLz/F (converted)) was 46.2 mL/min/kg. Moreover, the Vd/F in data set [3] (male, Sprague-Dawley, po, rat plasma, p.o. 20 mg/kg, read-out: Vz/F) was found to be 4.54 ± 4.68 L/kg. Moreover, the bioavailability in [3] (male, Sprague-Dawley, rat, plasma, oral, 20 mg/kg, rats, p.o. 20 mg/kg vs i.v. 4 mg/kg, read-out: F (bioavailability)) was 44.5%. Besides, the “time of second peak of the plasma concentration-time curve” value in [3] (oral administration group, 20 mg/kg) is reported as 1 h. In data set [3] (rat plasma, i.v. 4 mg/kg), this compound came in with a CLz/F of 18.8 ± 8.5 mL/min/kg and a Vz/F of 2.05 ± 1.66 L/kg. Moreover, in the data set with LIN28, the “LIN28 mRNA levels” value is reported as “decreased”. Also, the cell viability entry with A549 cells [4] is “decreased the viability”. Further, the “cytotoxicity on normal foetal lung fibroblast cells” value with MRC5 cells is reported as “almost had no cytotoxicity”. Further, the cell viability result with A549R cells [5] is recorded as “decreased the viability”. Moreover, the “distribution and foci formation of FAK” value in data set [6] is given as “reduced”. For the same compound, the “phosphorylation of FAK” value in data set [7] was “efficiently decreased”.
